Source: patent US12345644B2, “System and method for assessing cellular metabolic activity” (Trustees of Tufts College, priority 2016, dated 2025)

Tested on: HL-1 cardiomyocytes
Conditions: HL-1 cells, CCCP 50 μM, imaged right after exposure, versus vehicle control, n=4 cultures/group
Procedure: Mouse HL-1 cardiomyocytes are maintained in Claycomb media (Sigma-Alrich). Images are taken right after exposure to low-dose CCCP (50 μM) or vehicle. We prepared 4 dishes for each group, and acquired a total of 16 fields per group (4 fields per dish).
TPEF Data Acquisition: For TPEF imaging, cell cultures are placed in home-made micro-incubator system, which maintained 37° C. and 5% CO2 within a humidified environment throughout the imaging session. […] Images are obtained using a custom-built microscope with a 40×water dipping objective (NA 1.1) or a 25×water dipping objective (NA 0.95, for in vivo imaging only) equipped with a tunable (710-920 nm) Ti: sapphire laser (Mai Tai; Spectra Physics; Mountain View, Calif.). Emission events are registered by a photomultiplier tube (PMT) detector attached to a commercial time-correlated single photon counting (TCSPC) electronics module. To isolate NADH fluorescence, a 460(±20) nm emission filter (Chroma, ET460/40M-2P), corresponding to the NADH emission peak, was placed before the detector. NADH fluorescence images are acquired from this 460 nm detector using 755 nm excitation. FAD fluorescence was isolated using 525(±25) nm emission filter (Chroma, ET525/50M-2P) and 860 nm excitation. […] The laser power and PMT gain are recorded for each image and used to normalize fluorescence intensity.
Optical Redox Ratio Calculation: To process the optical redox ratio, firstly the fluorescence intensity of either NADH or FAD at each pixel was taken as the total photon counts detected during the integration time without spatial binning. For cell cultures, the cytoplasm of cells was selected based on the intensity threshold (FIG. 2F), while the segmentation of cell cytoplasm and lipid areas for BAT tissues was extracted by a combination of fluorescence intensity and lifetime information (FIGS. 71-7F). Pixel-wise redox ratio maps are created by normalized fluorescence intensities as: FAD/(FAD+NADH). […]

Question: For “carbonyl cyanide m-chlorophenyl hydrazine [CCCP]”, which “bound NADH fraction (NADH fluorescence lifetime, phasor analysis)” value is on record?
Answer: increase

Question: What about the “mitochondrial clustering (β from PSD)” value of the same substance?
Answer: increased

Question: What about the “optical redox ratio FAD/(NADH+FAD)” value of the same substance?
Answer: elevated
